PubChem BioAssay (NCI)
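Values below derive from 48-hour exposures of cells grown in 96-well plates, with endpoints linearly interpolated between the two concentrations bracketing the appropriate inhibition level. Abbreviation: GI50, concentration required for 50% inhibition of growth. At the TGI there is no net growth.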

What was measured:
Assay in all cases: inhibition of tumour cell growth, NCI panel, 48 h
[1] = tested on: ACHN renal
[2] = tested on: DU-145 prostate
[3] = tested on: NCI-H23 lung
[4] = tested on: NCI-H460 lung
[5] = tested on: OVCAR-5 ovarian
[6] = tested on: SF-295 CNS
[7] = tested on: SNB-19 CNS
[8] = tested on: SW-620 colon
[9] = tested on: T-47D breast
[10] = tested on: UACC-257 melanoma

| SMILES | TGI [1] [µM] | TGI [2] [µM] | TGI [3] [µM] | TGI [4] [µM] | TGI [5] [µM] | TGI [6] [µM] | TGI [7] [µM] | TGI [8] [µM] | TGI [9] [µM] | TGI [10] [µM] | GI50 [1] [µM] | GI50 [2] [µM] | GI50 [5] [µM] | GI50 [6] [µM] | GI50 [8] [µM] | GI50 [3] [µM] | GI50 [4] [µM] | GI50 [7] [µM] | GI50 [9] [µM] | GI50 [10] [µM] |
| --- | --- | --- | --- | --- | --- | --- | --- | --- | --- | --- | --- | --- | --- | --- | --- | --- | --- | --- | --- | --- |
| COC1CCC(OC2CC(C3(C)CCC4(CC(O)C(C)C(C(C)/C=C(\C)C(=O)C(C)CC(C)C(=O)O)O4)O3)OC3(OC(C4OC(O)(CO)C(C)CC4C)CC3C)C2C)OC1C (configuration not stated) | 4.9 | 3.63 | 1.13 | 1.6 | 13.1 | 1.79 | 0.355 | 1.88 | 1.22 | 1.52 | – | – | – | – | – | – | – | – | – | – |
| COc1cc(C2c3cc4c(cc3OC(N3CCOCC3)C2C)OCO4)cc(OC)c1O (configuration not stated) | > 74.9 | > 100 | > 100 | > 100 | > 100 | 15.8 | > 75.1 | > 59.6 | > 100 | > 100 | – | – | – | – | – | – | – | – | – | – |
| Cc1cc2ccccc2c[n+]1CC(=O)CC([O-])(C(F)(F)F)C(F)(F)F | > 100 | > 100 | > 100 | > 100 | > 100 | > 100 | > 100 | > 100 | > 100 | > 100 | – | – | – | – | – | – | – | – | – | – |
| CCOC(=O)/C=C(/C(=O)OCC)n1cc(C)c(=O)n(Cc2cnnn2CCCCOC(C)=O)c1=O | 23.9 | > 100 | 90.8 | 71.5 | 39.8 | > 100 | > 100 | > 100 | 71.1 | > 100 | – | – | – | – | – | – | – | – | – | – |
| CC(NCCS(=O)(=O)O)C(=O)O (configuration not stated) | – | – | > 100 | > 100 | > 100 | > 100 | > 100 | > 100 | – | > 100 | – | – | – | – | – | – | – | – | – | – |
| CC(C)n1c(=O)c2nn3c(=O)n(C(C)C)c(=O)c3nn2c1=O | > 100 | > 100 | > 100 | > 100 | > 100 | > 100 | > 100 | > 100 | > 100 | > 100 | – | – | – | – | – | – | – | – | – | – |
| O=S1(=O)c2ccccc2N2CCCc3cc(Cl)cc1c32 | > 100 | > 100 | – | > 100 | > 100 | 95 | > 100 | > 100 | – | > 100 | – | – | – | – | – | – | – | – | – | – |
| CO[P@]1(=O)O[C@@H](c2ccccc2)[C@H](O)[C@]1(O)c1ccccc1 | > 100 | > 100 | > 100 | > 100 | > 100 | > 100 | > 100 | > 100 | > 100 | > 100 | – | – | – | – | – | – | – | – | – | – |
| O=C1CC(O)c2c(Cl)sc(Cl)c21 (configuration not stated) | 26.2 | 54.8 | 35.6 | 52.3 | 33 | > 59.3 | 40.2 | 6.5 | > 24.2 | 27.7 | – | – | – | – | – | – | – | – | – | – |
| S=C1CC(c2ccc(Cl)cc2)Sc2ccccc2N1 (configuration not stated) | > 100 | > 100 | > 100 | > 100 | > 100 | > 100 | 94 | – | > 100 | > 100 | – | – | – | – | – | – | – | – | – | – |
| O=C1CC(c2cccc(Cl)c2)n2cccc21 (configuration not stated) | > 100 | > 100 | > 100 | – | > 100 | > 100 | > 100 | > 100 | > 100 | > 100 | – | – | – | – | – | – | – | – | – | – |
| Clc1ccc(OCc2nnc(CCCCCCCCc3nnc(COc4ccc(Cl)cc4Cl)o3)o2)c(Cl)c1 | > 100 | > 100 | > 100 | > 100 | > 100 | > 100 | > 100 | > 100 | – | > 100 | – | – | – | – | – | – | – | – | – | – |
| CCCCNC(=S)Nc1nc(C(=O)NNS(=O)(=O)c2ccccc2)cs1 | 85.5 | > 100 | > 100 | – | > 100 | > 100 | – | – | > 100 | 53.7 | – | – | – | – | – | – | – | – | – | – |
| COc1cccc(/C=C/C2=NN(c3cccc(S(=O)(=O)O)c3)C3(C2)SCC(=O)N3c2nc3ccccc3s2)c1 (configuration not stated) | > 100 | 93.1 | > 100 | > 100 | > 100 | – | > 100 | > 100 | 52.8 | > 100 | – | – | – | – | – | – | – | – | – | – |
| CCN(CC)C(=O)CCCCCCCCC1CO1 (configuration not stated) | > 100 | > 100 | > 100 | > 100 | > 100 | > 100 | > 100 | > 100 | – | > 100 | – | – | – | – | – | – | – | – | – | – |
| CN(C)c1ccc(/C=C2\N=C(c3ccccc3)N(c3nc4c(Cl)cc(Cl)cc4s3)C2=O)cc1 | > 100 | > 100 | – | > 100 | > 100 | > 100 | > 100 | > 100 | > 100 | > 100 | – | – | – | – | – | – | – | – | – | – |
| Nc1cc(CO)cc(Nc2c3ccccc3nc3occc23)c1 | > 100 | > 100 | 71.7 | 64.3 | > 100 | > 100 | > 100 | – | 80.3 | > 100 | – | – | – | – | – | – | – | – | – | – |

| SMILES | TGI [1] [µM] | TGI [2] [µM] | TGI [3] [µM] | TGI [4] [µM] | TGI [5] [µM] | TGI [6] [µM] | TGI [7] [µM] | TGI [8] [µM] | TGI [9] [µM] | TGI [10] [µM] | GI50 [1] [µM] | GI50 [2] [µM] | GI50 [5] [µM] | GI50 [6] [µM] | GI50 [8] [µM] | GI50 [3] [µM] | GI50 [4] [µM] | GI50 [7] [µM] | GI50 [9] [µM] | GI50 [10] [µM] |
| --- | --- | --- | --- | --- | --- | --- | --- | --- | --- | --- | --- | --- | --- | --- | --- | --- | --- | --- | --- | --- |
| O=C1/C(=C/c2cccs2)N=C(c2ccccc2)N1C1Nc2cc3c(cc2S1)NC(N1C(=O)/C(=C/c2cccs2)N=C1c1ccccc1)S3 (configuration not stated) | > 100 | > 100 | 43.6 | > 100 | 75 | > 100 | – | > 100 | > 100 | > 100 | – | – | – | – | – | – | – | – | – | – |
| Cc1nc2c(Br)cc(Br)cc2c(=O)n1-c1ccccc1N | > 100 | > 100 | – | > 100 | > 100 | > 100 | > 100 | > 100 | – | 86.5 | – | – | – | – | – | – | – | – | – | – |
| CN(C)Cc1cc(N=Nc2ccc(Cl)c(Cl)c2)ccc1O | 16.2 | 17.6 | 28.1 | 19.8 | – | 31.9 | 27.6 | 23.1 | 23.2 | 30.5 | – | – | – | – | – | – | – | – | – | – |
| O=C(CSc1nc2ccc(I)cc2c(=O)n1Cc1ccccc1)Nc1ccc(Br)cc1 | > 100 | > 100 | > 100 | – | > 100 | > 100 | > 100 | > 100 | > 100 | – | – | – | – | – | – | – | – | – | – | – |
| Cc1ccc2[nH]c(=O)c(-c3cnc(=O)[nH]n3)c(O)c2c1 | > 100 | > 100 | > 100 | > 100 | > 100 | > 100 | – | > 100 | > 100 | > 100 | – | – | – | – | – | – | – | – | – | – |
| CCCCCCCCCC[C@@H](O)[C@@H]1CC[C@@H]([C@@H]2CC[C@@H]([C@@H](O)CCCCCCCCCCC(O)CC3=CC(C)OC3=O)O2)O1 (some centres not stated) | > 10 | > 10 | – | > 10 | > 10 | > 10 | – | > 10 | > 10 | > 10 | – | – | – | – | – | – | – | – | – | – |
| Nc1nc(N)c2ncn(CC(CO)CC(c3ccccc3)P(=O)(O)O)c2n1 (configuration not stated) | > 100 | – | > 100 | > 100 | > 100 | > 100 | > 100 | > 100 | – | > 100 | – | – | – | – | – | – | – | – | – | – |
| CC(Nc1cc(Cl)cc(Cl)c1)c1ccncc1 (configuration not stated) | 67.6 | – | 71.1 | 73.3 | 32.4 | 43.4 | > 100 | 70.5 | > 100 | 58.6 | – | – | – | – | – | – | – | – | – | – |
| CN(C)Cc1cc(C(=O)/C=C/c2ccc(/C=C/C(=O)c3cc(CN(C)C)c(O)c(CN(C)C)c3)cc2)cc(CN(C)C)c1O | > 100 | > 100 | 55.7 | – | 59.8 | > 100 | > 100 | 54.7 | > 100 | > 100 | – | – | – | – | – | – | – | – | – | – |
| O=c1[nH]cnc2c1ncn2[C@H]1CO[C@@H](CO)[C@@H]1O | > 100 | > 100 | > 100 | > 100 | > 100 | > 100 | – | > 100 | > 100 | > 100 | – | – | – | – | – | – | – | – | – | – |
| NCCCCCCNc1cc(-c2cccc(OC(F)(F)F)c2)nc2ccc(N3CCCC3)cc12 | 3.11 | 2.94 | – | – | 3.28 | 3.15 | – | 3.02 | – | – | 1.74 | 1.55 | 1.83 | 1.75 | 1.48 | – | – | – | – | – |
| Brc1ccc2c(c1)C1=C(CO2)Cc2ccccc2O1 | 33.3 | 38.6 | 32.5 | – | 34.8 | 35.4 | – | 66.4 | 33.2 | 32.6 | – | – | – | – | – | – | – | – | – | – |
| Cc1nnc2c3c(-c4ccccc4)c(-c4ccccc4)oc3nc(N(C)C)n12 | > 100 | > 100 | > 100 | – | > 100 | > 100 | > 100 | > 100 | > 100 | > 100 | – | – | – | – | – | – | – | – | – | – |
| O=[N+]([O-])C(=C(NCc1ccccc1)NCc1ccccc1)C(Cl)=C(Cl)Cl | 55.9 | > 100 | 96.9 | > 100 | – | 60.8 | > 100 | > 100 | 92.9 | 82.4 | – | – | – | – | – | – | – | – | – | – |
| COc1ccc(-c2cn3ccnc3c(-c3ccc4ncn(C5CCCCC5)c4c3)n2)cc1 | > 100 | > 100 | > 100 | > 100 | – | – | > 100 | > 100 | 4.5 | > 100 | 0.692 | 1.07 | – | – | 0.734 | 2.11 | 0.622 | 0.836 | 0.761 | > 100 |
| C=C1CCCCCCCCCCC1S(=O)c1ccccc1 (configuration not stated) | > 100 | > 100 | > 100 | > 100 | > 100 | > 100 | > 100 | – | > 100 | > 100 | – | – | – | – | – | – | – | – | – | – |
